From publication PMC9023544, “Ketone-selenoesters as potential anticancer and multidrug resistance modulation agents in 2D and 3D ovarian and breast cancer in vitro models” (Scientific Reports, 2022)
Counter-ions that a name gives are not always drawn. Like-named read-outs stand apart in the source and are kept apart here.

Key:
[1] = system: HOC/ADR; test: Sensitization of MDR cell line to Adriamycin; format: cell-based, human; settings: for Fold change: IC50 of Adriamycin / IC50 of Adriamycin with IC10 dose of compound; for increase of the IC50 of Adriamycin: IC10 dose of compound
Description: To determine the sensitization potential of compounds, HOC/ADR and MCF-7/PAX were used. Based on the cytotoxic potential of the compounds against several cancer and non-cancerous cell lines (Table 1), the concentrations of applied compounds were adjusted. IC10 values was considered as the concentrations, which should not decrease the cell viability under 90%. After the addition of compounds, Adriamycin (concentration range 0.1–20 µM) and paclitaxel (concentration range 0.1–10 µM) were added to HOC/ADR and MCF-7/PAX, respectively. The sensitization potential of the compounds was determined as the ratio of the IC50 of cytostatic agent (Adriamycin/paclitaxel) to the IC50 of cytostatic agent affected by the compound in concentration corresponding to the IC10 value. Fold change greater than 1 indicated synergic effect of cytostatic agent and the tested compound.
After that, the plates were washed 1× with PBS and fresh DMEM medium supplemented with tested compounds at final concentration corresponding their IC10 value was added, except for positive control wells. Subsequently, Adriamycin (concentration range 0.1–20 µM) or paclitaxel (concentration range 0.1–10 µM) was added to the appropriate cell line for 72 h. After incubation, the cells were washed 1× with PBS and the resazurin solution (0.03 mg/mL) was added to evaluate the cell viability as described above. IC50 values of cytostatics were calculated for both the control and compounds; a fold change was counted up. When this fold change is higher than 1 indicates a synergism between the tested cytostatic agent and the compound, while a fold change lower than 1 means an antagonism. Fold change=IC50value of cytostatic treated cells only/IC50value of cytostatic treated cells in addition of the compound

[2] = system: HOC/ADR (sub-line resistant to Adriamycin, A2780/ADR); test: Cytotoxic activity, 2D, resazurin, 72 h; format: cell-based, human; settings: for IC50 / IC10: Homo sapiens, A2780 ADR, 72 h; for IC50: 2D, mean ± SEM, n=3, read-out: HOC/ADR IC50; for IC10: HOC/ADR, concentration that should not decrease viability under 90%, read-out: IC10 of compounds; for SI HEK293/HOC/ADR: IC50 HEK293 / IC50 HOC/ADR; for CS (collateral sensitivity index): IC50 HOC / IC50 HOC/ADR
Description: (§1) The cytotoxic potential of selenoesters was tested on several cancer cell lines—HOC (human parental ovarian adenocarcinoma, HOC, A2780, Sigma-Aldrich), HOC/ADR (sub-line resistant to Adriamycin, A2780/ADR, Sigma-Aldrich), MCF-7 (human breast adenocarcinoma, ATCC®, HTB-22TM), MCF-7/PAX (resistant sub-line established by gradual adaptation of parental cells to increased concentration of paclitaxel; kindly provided by Division of Cell and Molecular Biology, Third Faculty of Medicine, Charles University, Czech Republic) and on one non-cancerous cell line—HEK293 (human embryonic kidney cell line, Leibniz Institute, DSMZ-German Collection of Microorganisms and Cell Cultures GmbH). All mentioned cell lines were authenticated using short tandem repeat (STR) profiling. Cell lines were cultivated in DMEM medium (10% FBS, 1× antibiotic antimycotic solution), except for HEK293 cell line which was cultivated without antibiotics. In case of the resistant cell lines, the medium was supplemented with a required concentration of cytostatics to maintain resistance (HOC/ADR—100 nM Adriamycin; MCF-7/PAX—300 nM paclitaxel). All cells were cultivated in a CO2 incubator (5% CO2, 37 °C, Thermo Fisher Scientific).
(§2) For the experiment, the cells at passage number 5–20 were seeded at a 1 × 10^5 cells/mL concentration into 96-well plates to 100 µL final volume. The final concentration range of the compounds was 0.63–20 µM. After an incubation of 72 h, the plates were washed 1× with PBS and resazurin solution (0.03 mg/mL in 1× PBS) was added. After 1 h of incubation, the fluorescence signal was recorded (ex./em. 560/590 nm).
(§3) The selectivity index (SI) was determined as the ratio of IC50 value for the non-cancerous cells to IC50 for the cancer cell line. For resistant cell lines, the collateral sensitivity (CS) was calculated as the ratio of IC50 value in sensitive tumour cells to IC50 in the resistant cancer cell line. In both cases, the selectivity is considered as: (1) strongly selective when SI or CS value is above 6, (2) moderately selective when SI or CS is between 3 and 6, (3) slightly selective when SI or CS is between 1 and 3 and (4) non-selective when SI or CS is less than 1[23].

[3] = system: HOC (human parental ovarian adenocarcinoma, A2780); test: Cytotoxic activity, 2D, resazurin, 72 h; format: cell-based; settings: for IC50: 2D, 72 h, mean ± SEM, n=3, read-out: HOC IC50; for SI HEK293/HOC: IC50 HEK293 / IC50 HOC
Description: as §1, §2, §3

[4] = system: HEK293 (human embryonic kidney cell line); test: Cytotoxic activity, non-cancerous cell line, resazurin, 72 h; format: cell-based; settings: Homo sapiens, HEK293; 72 h, mean ± SEM, n=3
Description: as §1, §2, §3

[5] = system: MCF-7/PAX (paclitaxel-resistant sub-line); test: Cytotoxic activity, 2D, resazurin, 72 h; format: cell-based, human; settings: for IC50: Homo sapiens, MCF7, 2D, 72 h, mean ± SEM, n=3, read-out: MCF-7/PAX IC50; for SI HEK293/MC7-7/PAX: IC50 HEK293 / IC50 MCF-7/PAX; for CS (collateral sensitivity index): IC50 MCF-7 / IC50 MCF-7/PAX
Description: as §1, §2, §3

[6] = system: MCF-7 (human breast adenocarcinoma); test: Cytotoxic activity, 2D, resazurin, 72 h; format: cell-based; settings: for IC50: Homo sapiens, MCF7, 2D, 72 h, mean ± SEM, n=3, read-out: MCF-7 IC50; for SI HEK293/MCF-7: IC50 HEK293 / IC50 MCF-7
Description: as §1, §2, §3

| SMILES | IC50 ([1]; Homo sapiens, Adriamycin 0.1–20 µM with IC10 dose of compound, 72 h, ADR row = Adriamycin alone) | IC50 [2] | IC50 ([3]; Homo sapiens, A2780, 72 h) | IC50 [4] | Fold change [1] | IC10 [2] | SI HEK293/HOC/ADR [2] | CS (collateral sensitivity index) [2] | IC50 [5] | SI HEK293/MC7-7/PAX [5] | CS (collateral sensitivity index) [5] | IC50 [3] | SI HEK293/HOC [3] | IC50 [6] | SI HEK293/MCF-7 [6] | increase of the IC50 of Adriamycin [1] | collateral sensitivity against paclitaxel-resistant breast carcinoma (in words) [5] | collateral sensitivity against HOC/ADR (in words) [2] |
| --- | --- | --- | --- | --- | --- | --- | --- | --- | --- | --- | --- | --- | --- | --- | --- | --- | --- | --- |
| COc1cccc2c1C(=O)c1c(O)c3c(c(O)c1C2=O)C[C@@](O)(C(=O)CO)C[C@@H]3O[C@H]1C[C@H](N)[C@H](O)[C@H](C)O1 [ADR, doxorubicin hydrochloride, reference compound] | 2500 nM | 2500 nM | 10 nM |  |  |  |  |  |  |  |  |  |  |  |  |  |  |  |
| CC(=O)C[Se]C(=O)c1cccs1 [K1] |  | 2300 nM | < 1000 nM | 1000 ± 100 nM | (1.3 ± 0.1)× | 1500 nM | 0.4 ± 0.0 | 0.4 ± 0.0 | 2200 ± 200 nM | 0.4 ± 0.0 | 0.7 ± 0.1 | 800 nM | 1.2 ± 0.1 | 1600 ± 100 nM | 0.6 ± 0.1 |  |  |  |
| CC(=O)C[Se]C(=O)c1ccccc1F [K2] |  | 2400 ± 100 nM | < 1000 nM | 1200 ± 100 nM | (1.2 ± 0.0)× | 1000 nM | 0.5 ± 0.0 | 0.3 ± 0.0 | 1900 ± 100 nM | 0.6 ± 0.1 | 1.0 ± 0.1 | 800 ± 100 nM | 1.6 ± 0.1 | 1900 ± 100 nM | 0.7 ± 0.1 |  |  |  |
| CC(=O)C[Se]C(=O)c1cccc(C(F)(F)F)c1 [K5] |  | 2200 ± 300 nM | 1100 nM | 1600 nM | (0.5 ± 0.1)× | 1500 nM | 0.7 ± 0.1 | 0.5 ± 0.1 | 2800 ± 100 nM | 0.6 ± 0.0 | 0.6 ± 0.1 |  | 1.5 ± 0.0 | 1600 ± 100 nM | 1.0 ± 0.1 | almost twofold |  |  |
| CC(=O)C[Se]C(=O)c1ccc(F)c(Cl)c1 [K6] |  | 2600 ± 100 nM | < 1000 nM | 2000 ± 100 nM | (1.1 ± 0.1)× | 1300 nM | 0.8 ± 0.1 | 0.3 ± 0.0 | 2300 ± 300 nM | 0.9 ± 0.1 | 0.9 ± 0.1 | 700 ± 100 nM | 2.7 ± 0.4 | 2100 ± 200 nM | 0.9 ± 0.2 |  |  |  |
| CC(=O)C[Se]C(=O)c1cc(F)c(F)cc1F [K8] |  | 2700 nM | 2100 ± 100 nM | 2000 ± 200 nM | (1.1 ± 0.1)× | 3000 nM | 0.7 ± 0.0 | 0.8 ± 0.1 | 2000 ± 100 nM | 1.0 ± 0.2 | 1.3 ± 0.3 |  | 0.9 ± 0.1 | 2600 ± 400 nM | 0.8 ± 0.1 |  | slight collateral sensitivity |  |
| N#CC[Se]C(=O)c1cccs1 [N1] |  | 4200 ± 200 nM | 2700 ± 300 nM | 6000 ± 600 nM | (0.3 ± 0.1)× | 2500 nM | 1.4 ± 0.2 | 0.7 ± 0.1 | 2500 nM | 2.4 ± 0.4 | 1.2 ± 0.2 |  | 2.2 ± 0.4 | 3100 ± 200 nM | 2.0 ± 0.3 | 3.5 fold | slight collateral sensitivity |  |
| N#CC[Se]C(=O)c1cccc(F)c1 [N2] |  | 4700 ± 100 nM | 7100 ± 200 nM | 7800 ± 200 nM | (1.2 ± 0.1)× | 3000 nM | 1.7 ± 0.1 | 1.5 ± 0.1 | 2500 ± 300 nM | 3.1 ± 0.2 | 1.0 ± 0.1 |  | 1.1 ± 0.1 | 2600 ± 100 nM | 3.0 ± 0.2 |  |  | slight collateral sensitivity |
| N#CC[Se]C(=O)c1ccc(Br)cc1 [N3] |  | 5200 ± 100 nM | 6500 ± 300 nM | 8000 ± 300 nM | (1.3 ± 0.0)× | 3100 nM | 1.5 ± 0.1 | 1.3 ± 0.1 | 2700 ± 200 nM | 3.0 ± 0.6 | 0.9 ± 0.3 |  | 1.2 ± 0.1 | 2300 ± 500 nM | 3.5 ± 0.9 |  |  | slight collateral sensitivity |
| N#CC[Se]C(=O)c1ccccc1C(F)(F)F [N4] |  | 3700 ± 200 nM | 2400 ± 100 nM | 5200 ± 300 nM | (1.3 ± 0.1)× | 2400 nM | 1.4 ± 0.1 | 0.6 ± 0.1 | 2400 ± 200 nM | 2.1 ± 0.2 | 0.9 ± 0.1 |  | 2.2 ± 0.2 | 2100 ± 100 nM | 2.5 ± 0.2 |  |  |  |
| N#CC[Se]C(=O)c1cccc(C(F)(F)F)c1 [N5] |  | 4500 ± 200 nM | 2300 ± 100 nM | 6000 ± 200 nM | (1.2 ± 0.2)× | 2500 nM | 1.3 ± 0.1 | 0.5 ± 0.1 | 2700 ± 200 nM | 2.3 ± 0.2 | 0.9 ± 0.2 |  | 2.7 ± 0.2 | 2500 ± 200 nM | 2.4 ± 0.3 |  |  |  |
| N#CC[Se]C(=O)c1ccc(F)c(Cl)c1 [N6] |  | 3600 nM | 2400 ± 200 nM | 4900 ± 100 nM | (0.4 ± 0.0)× | 2600 nM | 1.4 ± 0.0 | 0.7 ± 0.1 | 1900 ± 100 nM | 2.6 ± 0.1 | 0.9 ± 0.0 |  | 2.1 ± 0.2 | 1700 nM | 2.9 ± 0.1 | almost threefold |  |  |
| CC(=O)O[C@H]1C(=O)[C@@]2(C)[C@H]([C@H](OC(=O)c3ccccc3)[C@]3(O)C[C@H](OC(=O)[C@H](O)[C@@H](NC(=O)c4ccccc4)c4ccccc4)C(C)=C1C3(C)C)[C@]1(OC(C)=O)CO[C@@H]1C[C@@H]2O [PAX, paclitaxel, reference compound] |  |  |  |  |  |  |  |  | 1500 nM |  |  |  |  | 30 nM |  |  |  |  |
